Publication PMC8843100, “Development of newly synthesised quinazolinone-based CDK2 inhibitors with potent efficacy against melanoma” (Journal of Enzyme Inhibition and Medicinal Chemistry, 2022)

Columns and labels:
Assay in all cases: NCI-60 single dose screen, sulforhodamine B
Assay type in all cases: cell-based, human
COLO 205 = settings: Colon cancer COLO 205; single dose 10^−5 M
Summary of the method: (§1)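 Compounds were tested at a single 10 µM dose (DMSO solution) after cells had been seeded and grown for 1 day. Following 2 further days of exposure, cells were fixed and stained with sulforhodamine B. Growth inhibition is relative to untreated cells and a time-zero control.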

NCI/ADR-RES = settings: Ovarian cancer NCI/ADR-RES; single dose 10^−5 M
Summary of the method: as §1

NCI-H522 = settings: Non-small cell lung cancer NCI-H522; single dose 10^−5 M
Summary of the method: as §1

SF-295 = settings: CNS cancer SF-295; single dose 10^−5 M
Summary of the method: as §1

BT-549 = settings: Breast cancer BT-549; single dose 10^−5 M
Summary of the method: as §1

HS 578T = settings: Breast cancer HS 578T; single dose 10^−5 M
Summary of the method: as §1

SNB-75 = settings: CNS cancer SNB-75; single dose 10^−5 M
Summary of the method: as §1

SNB-19 = settings: CNS cancer SNB-19; single dose 10^−5 M
Summary of the method: as §1

LOX IMVI = settings: Melanoma LOX IMVI; single dose 10^−5 M
Summary of the method: as §1

A549/ATCC = settings: Non-small cell lung cancer A549/ATCC; single dose 10^−5 M
Summary of the method: as §1

SN12C = settings: Renal cancer SN12C; single dose 10^−5 M
Summary of the method: as §1

MALME-3M = settings: Melanoma MALME-3M; single dose 10^−5 M
Summary of the method: as §1

UACC-62 = settings: Melanoma UACC-62; single dose 10^−5 M
Summary of the method: as §1

A498 = settings: Renal cancer A498; single dose 10^−5 M
Summary of the method: as §1

NCI-H460 = settings: Non-small cell lung cancer NCI-H460; single dose 10^−5 M
Summary of the method: as §1

UACC-257 = settings: Melanoma UACC-257; single dose 10^−5 M
Summary of the method: as §1

MDA-MB-435 = settings: Melanoma MDA-MB-435; single dose 10^−5 M
Summary of the method: as §1

SR = settings: Leukaemia SR; single dose 10^−5 M
Summary of the method: as §1

CAKI-1 = settings: Renal cancer CAKI-1; single dose 10^−5 M
Summary of the method: as §1

EKVX = settings: Non-small cell lung cancer EKVX; single dose 10^−5 M
Summary of the method: as §1

K-562 = settings: Leukaemia K-562; single dose 10^−5 M
Summary of the method: as §1

SW-620 = settings: Colon cancer SW-620; single dose 10^−5 M
Summary of the method: as §1

OVCAR-3 = settings: Ovarian cancer OVCAR-3; single dose 10^−5 M
Summary of the method: as §1

HCC-2998 = settings: Colon cancer HCC-2998; single dose 10^−5 M
Summary of the method: as §1

U251 = settings: CNS cancer U251; single dose 10^−5 M
Summary of the method: as §1

PC-3 = settings: Prostate cancer PC-3; single dose 10^−5 M
Summary of the method: as §1

RXF 393 = settings: Renal cancer RXF 393; single dose 10^−5 M
Summary of the method: as §1

HOP-92 = settings: Non-small cell lung cancer HOP-92; single dose 10^−5 M
Summary of the method: as §1

NCI-H226 = settings: Non-small cell lung cancer NCI-H226; single dose 10^−5 M
Summary of the method: as §1

MDA-MB-231/ATCC = settings: Breast cancer MDA-MB-231/ATCC; single dose 10^−5 M
Summary of the method: as §1

HT29 = settings: Colon cancer HT29; single dose 10^−5 M
Summary of the method: as §1

KM12 = settings: Colon cancer KM12; single dose 10^−5 M
Summary of the method: as §1

| Structure (SMILES) | GI% at 10^−5 M (COLO 205) | GI% at 10^−5 M (NCI/ADR-RES) | GI% at 10^−5 M (NCI-H522) [%] | GI% at 10^−5 M (SF-295) | GI% at 10^−5 M (BT-549) | GI% at 10^−5 M (HS 578T) | GI% at 10^−5 M (SNB-75) | GI% at 10^−5 M (SNB-19) | GI% at 10^−5 M (LOX IMVI) | GI% at 10^−5 M (A549/ATCC) | GI% at 10^−5 M (SN12C) [%] | GI% at 10^−5 M (MALME-3M) | GI% at 10^−5 M (UACC-62) | GI% at 10^−5 M (A498) | GI% at 10^−5 M (NCI-H460) | GI% at 10^−5 M (UACC-257) | GI% at 10^−5 M (MDA-MB-435) | GI% at 10^−5 M (SR) | GI% at 10^−5 M (CAKI-1) [%] | GI% at 10^−5 M (EKVX) [%] | also measured |
| --- | --- | --- | --- | --- | --- | --- | --- | --- | --- | --- | --- | --- | --- | --- | --- | --- | --- | --- | --- | --- | --- |
| O=C(CNn1c(COc2ccccc2)nc2ccccc2c1=O)Nc1ccccc1 [Compound 4a, 2-((4-oxo-2-(phenoxymethyl)quinazolin-3(4H)-yl)amino)-N-phenylacetamide] | – (– means GI < 10%) | – (– means GI < 10%) | 13.74 | – (– means GI < 10%) | – (– means GI < 10%) | 11.86% | 62.34% | – (– means GI < 10%) | – (– means GI < 10%) | – (– means GI < 10%) | 13.08 | – (– means GI < 10%) | – (– means GI < 10%) | – (– means GI < 10%) | – (– means GI < 10%) | – (– means GI < 10%) | – (– means GI < 10%) | – (– means GI < 10%) | 12.78 | 14.38 | GI% at 10^−5 M (K-562): – (– means GI < 10%); GI% at 10^−5 M (SW-620): – (– means GI < 10%); GI% at 10^−5 M (OVCAR-3): – (– means GI < 10%); GI% at 10^−5 M (HCC-2998): – (– means GI < 10%); GI% at 10^−5 M (U251): – (– means GI < 10%); GI% at 10^−5 M (PC-3): 10.95%; GI% at 10^−5 M (RXF 393): – (– means GI < 10%); GI% at 10^−5 M (HOP-92): 15.94%; GI% at 10^−5 M (NCI-H226): – (– means GI < 10%); GI% at 10^−5 M (MDA-MB-231/ATCC): 18.56%; GI% at 10^−5 M (HT29): – (– means GI < 10%); GI% at 10^−5 M (KM12): – (– means GI < 10%) |
| COc1ccc(NC(=O)CNn2c(COc3ccccc3)nc3ccccc3c2=O)cc1 [Compound 4b, N-(4-methoxyphenyl)-2-((4-oxo-2-(phenoxymethyl)quinazolin-3(4H)-yl)amino)acetamide] | – (– means GI < 10%) | – (– means GI < 10%) | 12.54 | – (– means GI < 10%) | – (– means GI < 10%) | – (– means GI < 10%) | 21.9% | – (– means GI < 10%) | – (– means GI < 10%) | – (– means GI < 10%) | 12.37 | – (– means GI < 10%) | – (– means GI < 10%) | 34.65% | – (– means GI < 10%) | – (– means GI < 10%) | – (– means GI < 10%) | – (– means GI < 10%) | 21.63 | 10.17 | GI% at 10^−5 M (K-562): – (– means GI < 10%); GI% at 10^−5 M (SW-620): – (– means GI < 10%); GI% at 10^−5 M (OVCAR-3): – (– means GI < 10%); GI% at 10^−5 M (HCC-2998): – (– means GI < 10%); GI% at 10^−5 M (U251): – (– means GI < 10%); GI% at 10^−5 M (PC-3): 9.76%; GI% at 10^−5 M (RXF 393): – (– means GI < 10%); GI% at 10^−5 M (HOP-92): 16.34%; GI% at 10^−5 M (NCI-H226): – (– means GI < 10%); GI% at 10^−5 M (MDA-MB-231/ATCC): 11.38%; GI% at 10^−5 M (HT29): – (– means GI < 10%); GI% at 10^−5 M (KM12): – (– means GI < 10%) |
| O=C(CNn1c(COc2ccccc2)nc2ccccc2c1=O)Nc1ccc(Cl)cc1 [Compound 4c, N-(4-chlorophenyl)-2-((4-oxo-2-(phenoxymethyl)quinazolin-3(4H)-yl)amino)acetamide] | – (– means GI < 10%) | 10.99% | 24.21 | – (– means GI < 10%) | 12.12% | 19.01% | – (– means GI < 10%) | – (– means GI < 10%) | – (– means GI < 10%) | – (– means GI < 10%) | 19.15 | 12.02% | 14.58% | 16.35% | – (– means GI < 10%) | – (– means GI < 10%) | – (– means GI < 10%) | 10.05% | 23.58 | 19.01 | GI% at 10^−5 M (K-562): 10.43%; GI% at 10^−5 M (SW-620): – (– means GI < 10%); GI% at 10^−5 M (OVCAR-3): – (– means GI < 10%); GI% at 10^−5 M (HCC-2998): – (– means GI < 10%); GI% at 10^−5 M (U251): – (– means GI < 10%); GI% at 10^−5 M (PC-3): 15.9%; GI% at 10^−5 M (RXF 393): – (– means GI < 10%); GI% at 10^−5 M (HOP-92): 29.33%; GI% at 10^−5 M (NCI-H226): 11.13%; GI% at 10^−5 M (MDA-MB-231/ATCC): – (– means GI < 10%); GI% at 10^−5 M (HT29): – (– means GI < 10%); GI% at 10^−5 M (KM12): – (– means GI < 10%) |
| O=c1c2ccccc2nc(COc2ccccc2)n1NS(=O)(=O)c1ccc(Cl)cc1 [Compound 5c, 4-chloro-N-(4-oxo-2-(phenoxymethyl)quinazolin-3(4H)-yl)benzenesulfonamide] | – (– means GI < 10%) | 26.99% | 30.63 | – (– means GI < 10%) | – (– means GI < 10%) | 24.96% | 63.09% | 20.21% | 16.40% | 14.05% | 23.41 | 17.90% | 23.06% | 36.68% | – (– means GI < 10%) | – (– means GI < 10%) | 94.53% | 42.42% | 26.93 | 25.19 | GI% at 10^−5 M (K-562): 52.75%; GI% at 10^−5 M (SW-620): 30.94%; GI% at 10^−5 M (OVCAR-3): – (– means GI < 10%); GI% at 10^−5 M (HCC-2998): 22.36%; GI% at 10^−5 M (U251): 12.24%; GI% at 10^−5 M (PC-3): 17.26%; GI% at 10^−5 M (RXF 393): – (– means GI < 10%); GI% at 10^−5 M (NCI-H226): 17.00%; GI% at 10^−5 M (MDA-MB-231/ATCC): 32.6%; GI% at 10^−5 M (HT29): 20.01%; GI% at 10^−5 M (KM12): 44.77% |
